This is an account of results in US20050084612A1, “Surface coating for microfluidic devices that incorporate a biopolymer resistant moiety” (Caliper Life Sciences, Inc., priority 1999, published 2005).

This test addresses T1, PTP1b (Homo sapiens, UniProt P18031).
T1 sequence (P18031 1-435): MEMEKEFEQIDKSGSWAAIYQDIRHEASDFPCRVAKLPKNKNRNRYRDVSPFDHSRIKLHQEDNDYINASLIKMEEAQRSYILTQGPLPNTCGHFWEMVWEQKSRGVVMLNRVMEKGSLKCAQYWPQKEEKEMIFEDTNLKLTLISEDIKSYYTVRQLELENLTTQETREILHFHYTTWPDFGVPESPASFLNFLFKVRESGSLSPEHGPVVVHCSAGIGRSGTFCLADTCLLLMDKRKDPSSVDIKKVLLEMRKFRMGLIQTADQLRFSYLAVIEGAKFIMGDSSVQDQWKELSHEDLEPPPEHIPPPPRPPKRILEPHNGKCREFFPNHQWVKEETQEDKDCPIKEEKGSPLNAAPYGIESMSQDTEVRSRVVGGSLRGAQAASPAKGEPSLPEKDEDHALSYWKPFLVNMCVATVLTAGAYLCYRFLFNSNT
As to the kind of experiment: PTP1b/diFMUP Km measurement by substrate titration in microfluidic device. Format: biochemical. To be noted: read-out: Km PTP1b/diFMUP; PEI-2 coated device, no NDSB, 50 mM HEPES+10 mM DTT.

Procedure: A 0.1 mg/ml PTP1b solution (12 μl) was placed in well 8. […] The fluorescence signal is detected at the end of the main channel.
The first 5 steps are substrate-only titrations using well 2 and well 3, with buffer flow from well 1. These provide measurements of the substrate background signal. The next 5 steps are the same substrate titration steps, but with enzyme flowing from well 8. The difference between these signals and the substrate-only background signal is product signal. […] The final concentration of the substrate was calculated from the known well concentration and the ratio of currents as programmed in the script. Plotting 1/(product signal per unit time) vs. 1/(substrate concentration) yields the Lineweaver-Burk plot with Km equal to slope divided by the y-intercept.
The final substrate concentration was calculated from Equation 4.

`Cc1cc(=O)oc2c(F)c(OP(=O)(O)O)c(F)cc12` [diFMUP, di-6-a-difluoro-4-methylumbelliferyl phosphate]: the Km worked out at 3 µM.
